Test results as given in patent publication US20250282798A1, “HETEROARYL-SUBSTITUTED BICYCLIC COMPOUND AND USE THEREOF” (Medshine Discovery Inc., priority 2022, published 2025).

What was measured:
Jurkat cells = test: IL-2 assay of Jurkat cells (ELISA); format: cell-based; details: CD3/CD28 antibodies, 48 hours
Description: The concentration of Jurkat cells growing in the logarithmic phase was adjusted to 1×10^6/mL. 100 μL/well of the cells was taken and plated in a 96-well round-bottom plate coated with CD3 antibodies. The cells were treated with different concentrations of the compounds with the addition of CD28 antibodies for 48 hours. The supernatant of the cell culture was collected, diluted 5-fold, and added to an ELISA plate coated with IL-2. The enzyme-linked immunosorbent assay was performed according to the kit instructions (Dakewe, 1110202). OD570 and OD450 were read with Envision, and the data were analyzed by Prism.

human HPK1 = human HPK1 (Homo sapiens (Human), UniProt Q92918); test: 33P isotope-labeled kinase activity assay (Method 1); format: biochemical; details: HPK1 enzyme concentration 8.1 nM; ATP concentration 15 μM
Chain of human HPK1 (Q92918 whole entry): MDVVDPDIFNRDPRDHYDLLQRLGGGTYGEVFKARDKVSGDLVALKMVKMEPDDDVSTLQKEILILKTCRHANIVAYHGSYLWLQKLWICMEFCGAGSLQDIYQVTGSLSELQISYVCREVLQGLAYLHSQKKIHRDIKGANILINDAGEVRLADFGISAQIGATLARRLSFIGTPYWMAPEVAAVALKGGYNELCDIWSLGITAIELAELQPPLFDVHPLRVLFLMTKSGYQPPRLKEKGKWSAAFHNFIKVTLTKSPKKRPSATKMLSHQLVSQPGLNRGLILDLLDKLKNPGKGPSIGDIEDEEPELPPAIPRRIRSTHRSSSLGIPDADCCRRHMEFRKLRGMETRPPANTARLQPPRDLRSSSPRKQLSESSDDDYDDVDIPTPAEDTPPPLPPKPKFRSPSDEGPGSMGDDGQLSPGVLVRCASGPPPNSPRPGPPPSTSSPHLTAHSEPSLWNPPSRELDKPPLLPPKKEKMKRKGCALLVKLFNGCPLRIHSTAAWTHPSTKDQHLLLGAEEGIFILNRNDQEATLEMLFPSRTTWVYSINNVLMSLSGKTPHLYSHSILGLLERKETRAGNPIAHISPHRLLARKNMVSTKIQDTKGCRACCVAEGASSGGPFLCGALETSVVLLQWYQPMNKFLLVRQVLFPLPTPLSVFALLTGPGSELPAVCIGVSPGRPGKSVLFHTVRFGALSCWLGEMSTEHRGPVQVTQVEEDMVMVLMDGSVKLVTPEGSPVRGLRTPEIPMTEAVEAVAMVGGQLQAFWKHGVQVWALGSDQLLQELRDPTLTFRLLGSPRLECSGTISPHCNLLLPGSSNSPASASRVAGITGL
Description: Method 1: The IC50 value was assayed by ^33P isotope-labeled kinase activity assay to evaluate the inhibitory ability of a test compound on human HPK1.
Enzyme buffer conditions: 50 mM Hepes (pH 7.5), 10 mM MgCl2, 1 mM EGTA, 0.01% Brij35, 2 mM DTT.
Assay steps: A compound was diluted 3-fold with DMSO in a dilution plate, with a final initial concentration of […] and 10 concentration gradient points. The compound was diluted 50-fold into the kinase reaction buffer, and the mixture was shaken on a shaker for 20 minutes. The kinase was prepared with the enzyme reaction buffer. 2 μL of kinase was added to each well of a reaction plate. 1 μL of the diluted compound in the buffer was added to each well. The plate was sealed with a sealing film, centrifuged at 1000 g for 30 seconds, and placed at room temperature for 10 minutes. The mixed solution of ATP/MBP was prepared with the enzyme reaction buffer. 2 μL of the mixed solution of ATP/MBP was added to the reaction plate. The plate was sealed with a sealing film, and centrifuged at 1000 g for 30 seconds. The mixture in the plate was reacted at room temperature for 60 minutes. […] The plate was incubated at 25° C. for 40 min. […] The plate was incubated at 25° C. for 40 min. The RLU (relative luminescence unit) signal was read with a BMG microplate reader, and the signal intensity was used to characterize the activity of the kinase.

Row | SMILES | EC50 (Jurkat cells) [nM] | IC50 (human HPK1) [nM] | EC50 (Jurkat cells; Homo sapiens) [nM]
1 | Cn1ccc2c(-c3ccc(Nc4ccc5c(n4)OC[C@H]4CNCCN54)c4c3CNC4=O)ccnc21 [Compound 5] | 710 | 3 | 
2 | CCN1CCN2c3ccc(Nc4ccc(-c5ccnc6c5ccn6C)c5c4C(=O)NC5)nc3OC[C@H]2C1 [Compound 6] |  | 8 | 320
